IC50 data for seven molecules are collected here from BindingDB's records for patent US20250066368 (Shanghai Apeiron Therapeutics Company, 2025).

The target of the test is T1, DNA polymerase theta [1792-2590] (UniProt O75417).
T1 construct: 1792-2590
T1 sequence (O75417 whole entry): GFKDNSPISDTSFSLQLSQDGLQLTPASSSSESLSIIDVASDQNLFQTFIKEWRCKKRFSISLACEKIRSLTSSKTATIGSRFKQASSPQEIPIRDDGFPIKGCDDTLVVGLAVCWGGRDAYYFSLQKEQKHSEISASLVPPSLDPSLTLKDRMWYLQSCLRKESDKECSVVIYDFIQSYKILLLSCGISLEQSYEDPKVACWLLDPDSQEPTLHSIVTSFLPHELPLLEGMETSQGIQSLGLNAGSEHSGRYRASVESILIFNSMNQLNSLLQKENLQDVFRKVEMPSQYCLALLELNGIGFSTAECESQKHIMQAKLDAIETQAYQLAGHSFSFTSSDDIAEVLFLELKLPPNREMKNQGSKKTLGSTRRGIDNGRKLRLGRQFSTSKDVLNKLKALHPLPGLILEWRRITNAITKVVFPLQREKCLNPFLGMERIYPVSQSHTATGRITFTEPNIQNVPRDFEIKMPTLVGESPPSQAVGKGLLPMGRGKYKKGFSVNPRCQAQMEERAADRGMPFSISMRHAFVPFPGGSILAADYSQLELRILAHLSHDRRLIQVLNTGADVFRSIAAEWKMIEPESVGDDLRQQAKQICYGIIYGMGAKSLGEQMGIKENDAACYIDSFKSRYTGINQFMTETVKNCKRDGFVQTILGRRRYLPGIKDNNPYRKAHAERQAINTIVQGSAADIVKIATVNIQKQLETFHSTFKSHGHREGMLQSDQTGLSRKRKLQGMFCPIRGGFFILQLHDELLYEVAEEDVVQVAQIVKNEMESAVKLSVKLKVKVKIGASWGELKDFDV
In words: ADP-Glo Kinase Assay. How it is done: The ability of compounds to inhibit Pol 0 polymerase activity was determined by the PicoGreen method in vitro.The His-TEV-SUMO-tagged Polθ protein (amino acids 1792-2590) expressed in E. coli was purified and stored in aliquots at −80° C.The composition of the assay buffer is 25 mM Tris HCl pH 7.5, 12.5 mM NaCl, 0.5 mM MgCl2, 5% glycerol, 0.01% Triton X-100, 0.01% BSA, and 1 mM DTT.Test compounds were diluted in 100% DMSO and diluted three-fold into 10 concentration points in a dilution plate (Greiner-781280) using Bravo (Agilent) according to concentration requirements. The compounds diluted in DMSO were then diluted 20-fold in the assay buffer using Bravo. Further, 2 μl of diluted compounds were transferred to the assay plate (Corning-4512) using Bravo. The purified Pol 0 enzyme and primers ((primer strand: 5′-GCGGCTGTCATAAG-3′, SEQ ID NO: 1):(template strand: 5′-[…]-3′, SEQ ID NO: 2)=1:1.1) were prepared at a working concentration of 2.5× (1.5 nM Polθ and 50 nM PTD) in the assay buffer, transferred to the assay plate at 4 μl per well using an E1-CLIPTIP 12-channel pipette (Thermo, 1-30 l), and incubated at room temperature for 30 min. dNTP (Sigma-D7295) was diluted with the assay buffer to a working concentration of 2.5× (40 uM dNTP), transferred to the assay plate at 4 μl per well (final DMSO concentration of 1%) using an El-CLIPTIP 12-channel pipette (Thermo, 1-30 l), and incubated at room temperature for 60 min. A mixture containing 10 mM EDTA, 25 mM Tris pH 7.5, and a 1:200 diluted PicoGreen dye (Invitrogen-P7581) was added to the assay plate at 6 μl per well to stop the reaction. After 30 min of reaction at room temperature in the dark, fluorescence values were read on EnVision 2105 (PerkinElmer) using the Ex480 nm Em520 nm program, and the raw data was analyzed using XLfit to generate IC50 values.
A general note: ADP-Glo first removes unused ATP, then detects ADP through luciferase.

For orientation: IC50 means the concentration needed to halve the response being measured.

The molecule `CN(C(=O)[C@@H]1CNC(=O)N1c1cc(C(F)(F)F)c2c(n1)C=CC2)c1ccc(F)c(Cl)c1F` [US20250066368, Compound 21] came in with an IC50 below 50 nM.

In the case of `[2H]C([2H])([2H])N(C(=O)[C@@H]1[C@H](O)[C@H](O)C(=O)N1c1cc(C(F)(F)F)c2c(n1)C(=O)CC2)c1cc(Cl)c(F)cc1F` [US20250066368, Compound 45], the IC50 is below 50 nM.

The molecule `[2H]C([2H])([2H])N(C(=O)C1[C@H](O)[C@H](O)C(=O)N1c1cc(C(F)(F)F)c2ccsc2n1)c1cc(Cl)c(F)cc1F` (some centres not stated) [US20250066368, Compound 16] yielded an IC50 below 50 nM.

`[2H]C([2H])([2H])N(C(=O)[C@@H]1[C@H](O)[C@H](O)C(=O)N1c1cc(C(F)(F)F)c2ncsc2n1)c1cc(Cl)c(F)cc1F` [US20250066368, Compound 26] had an IC50 below 50 nM.

Consider `CN(C(=O)[C@@H]1[C@H](O)[C@H](O)C(=O)N1c1cc(C(F)(F)F)c2c(n1)CCC2)c1cc(Cl)c(F)cc1F` [US20250066368, Compound 7], for which the IC50 is below 50 nM.

With `[2H]C([2H])([2H])N(C(=O)[C@@H]1[C@H](O)[C@H](O)C(=O)N1c1cc(C(F)(F)F)c2cc[se]c2n1)c1cc(Cl)c(F)cc1F` [US20250066368, Compound 46], the IC50 is below 50 nM.

For the molecule `[2H]C([2H])([2H])N(C(=O)[C@@H]1[C@H](O)[C@H](O)C(=O)N1c1cc(C(F)(F)F)c2c(n1)CC=C2)c1cc(Cl)c(F)cc1F` [US20250066368, Compound 19], the IC50 is below 50 nM.
